Data published in US20240058315A1, “Pyridine and Pyrazine derivative for the Treatment of CF, COPD, and Bronchiectasis” (NOVARTIS AG, priority 2019, published 2024).
Entries after “also recorded” stand apart in the source; their conditions may differ.

What was measured:
[1] = biological target: wild type CTFR channel (Homo sapiens (Human), UniProt P13569); assay: in vitro EC50 against the wild type CFTR channel; type: cell-based
Description: There is no preclinical in vivo model of CFTR potentiation.

[2] = system: Any Pathogen (Haemophilus parainfluenza, Haemophilus influenza, Pseudomonas aeruginosa, Moraxella, Streptococcus pneumonia) in sputum; assay: Phase II study in COPD patients: sputum microbiology, any pathogen; type: in vivo; settings: for patients colonized, n (%) / patients with a positive culture, n (%): Any Pathogen; for patients colonized, n (%): all patients in sputum analysis; for patients with a positive culture, n (%): only subjects with a pathogen at baseline; for percent of patients who cleared colonization: patients with culture positive sputum at Baseline
Experimental: A double-blinded, randomized, placebo-controlled, non-confirmatory, and multi-center, fixed-dose study of Compound A in COPD patients was conducted to assess efficacy, safety, tolerability, pharmacokinetics (PK), and pharmacodynamics (PD). Patients were randomized and stratified by smoking status (former vs current smokers). The double-blind placebo-controlled treatment period was 28 days (Day 1 to Day 28) and included visits on Days 1, 14 and 28. Eligible patients were randomized in a 2:1 ratio to receive 300 mg b.i.d. of Compound A or matching placebo for 28 consecutive days. Of note, the first 4 patients enrolled randomized in this study received 450 mg b.i.d. of Compound A or placebo, prior to an amendment reducing the dose and thereafter the dose was reduced to 300 mg b.i.d. of Compound A. The single-blind placebo-controlled follow-up period was 28 days. The follow-up period included a visit on Day 29 for key primary and secondary objective efficacy assessments, weekly follow-up contact via telephone, and an End-of-Study (EOS) visit on Day 56. Number of patients (planned and analyzed): Ninety two (92) patients were randomized into the study. The majority of the patients (N=78, 84.8%) completed the study as planned. A total of 14 patients discontinued the study (N=2 from placebo group and N=12 from Compound A group). The reasons for discontinuations include adverse events, protocol deviations (failure to meet inclusion/exclusion at Baseline), patient decision, abnormal laboratory values (positive drug screen) and administrative problems (patient unable to return to site for visits).
(§1) Spontaneous sputum was collected from patients and used to quantify colony forming units (CFUs) as a potential efficacy marker. The collected sputum samples were cultured for the following specific bacteria: Haemophilus parainfluenza, Haemophilus influenza, Pseudomonas aeruginosa, Moraxella, and Streptococcus pneumonia. In the event of bacterial growth for one or more of the above five pathogens, then the test result was reported, including the quantitative growth. In order to be included in the sputum analysis, a patient must have provided a sufficient sputum sample at baseline and at least one other visit (Day 14, Day 29 or EOS).
(§2) A decrease in airway bacterial colonization as detected in the sputum is considered improvement. In Table 4, the frequency (n, %) of patients was reported by treatment with Compound A and type of bacteria. Within each treatment group, the percentage was calculated as number of patients who were colonized with bacteria divided with total number of patients who produced a sputum sample at that time point.
For the treatment effect a summary table, the frequency (n, %) of patients with a positive culture was reported by each treatment. Only patients with a positive culture at baseline are included in this analysis. Percentage was calculated as number of patients who are colonized (i.e., have at least one culture resulted) divided with total number of patients who produced a sputum sample at each visit, by treatment.

[3] = system: Haemophilus influenzae; assay: Phase II study in COPD patients: sputum microbiology, Haemophilus influenzae; type: in vivo
Experimental: (§3) Patients were randomized and stratified by smoking status (former vs current smokers). The double-blind placebo-controlled treatment period was 28 days (Day 1 to Day 28) and included visits on Days 1, 14 and 28. Eligible patients were randomized in a 2:1 ratio to receive 300 mg b.i.d. of Compound A or matching placebo for 28 consecutive days. Of note, the first 4 patients enrolled randomized in this study received 450 mg b.i.d. of Compound A or placebo, prior to an amendment reducing the dose and thereafter the dose was reduced to 300 mg b.i.d. of Compound A. The single-blind placebo-controlled follow-up period was 28 days. The follow-up period included a visit on Day 29 for key primary and secondary objective efficacy assessments, weekly follow-up contact via telephone, and an End-of-Study (EOS) visit on Day 56.
as §1, §2

[4] = system: Pseudomonas aeruginosa small colony variant; type: in vivo; settings: Baseline
Experimental: as §3
Spontaneous sputum was collected from patients and used to quantify colony forming units (CFUs) as a potential efficacy marker. […] In the event of bacterial growth for one or more of the above five pathogens, then the test result was reported, including the quantitative growth. […]
as §2, with “In Table 4, the frequency (n, %) of patients was reported by treatment with Compound A and type of bacteria.” left out

[5] = system: COPD patients; assay: COPD PoC study (study 2): lung function (LCI, FEV1, spirometry); type: in vivo, human
Experimental: as §3

[6] = system: CFTR; assay: COPD PoC study (study 2): sweat chloride; type: in vivo, human; settings: Day 29, 300 mg bid 28 days, 90% CI −11.6, 1.25, p-value=0.091
Experimental: as §3

[7] = system: patients with CF; assay: Clinical study in cystic fibrosis patients: lung function (FEV1); type: in vivo, human; settings: two weeks of treatment, listed as Compound A
[8] = system: CYP2B6; assay: Induction of CYP2B6; type: in vitro ADME
[9] = system: CYP3A4/5; assay: Time dependent inhibition and induction of CYP3A4/5; type: in vitro ADME
[10] = biological target: BCRP (Homo sapiens (Human), UniProt Q9UNQ0); assay: in vitro inhibition of BCRP; type: in vitro ADME
[11] = biological target: OATP1B1 (Homo sapiens (Human), UniProt Q9Y6L6); assay: in vitro inhibition of OATP1B1; type: in vitro ADME
[12] = biological target: OATP1B3 (Homo sapiens (Human), UniProt Q9NPD5); assay: in vitro inhibition of OATP1B3; type: in vitro ADME
[13] = in vivo; settings: monkey

Sequence of wild type CTFR channel (P13569 whole entry): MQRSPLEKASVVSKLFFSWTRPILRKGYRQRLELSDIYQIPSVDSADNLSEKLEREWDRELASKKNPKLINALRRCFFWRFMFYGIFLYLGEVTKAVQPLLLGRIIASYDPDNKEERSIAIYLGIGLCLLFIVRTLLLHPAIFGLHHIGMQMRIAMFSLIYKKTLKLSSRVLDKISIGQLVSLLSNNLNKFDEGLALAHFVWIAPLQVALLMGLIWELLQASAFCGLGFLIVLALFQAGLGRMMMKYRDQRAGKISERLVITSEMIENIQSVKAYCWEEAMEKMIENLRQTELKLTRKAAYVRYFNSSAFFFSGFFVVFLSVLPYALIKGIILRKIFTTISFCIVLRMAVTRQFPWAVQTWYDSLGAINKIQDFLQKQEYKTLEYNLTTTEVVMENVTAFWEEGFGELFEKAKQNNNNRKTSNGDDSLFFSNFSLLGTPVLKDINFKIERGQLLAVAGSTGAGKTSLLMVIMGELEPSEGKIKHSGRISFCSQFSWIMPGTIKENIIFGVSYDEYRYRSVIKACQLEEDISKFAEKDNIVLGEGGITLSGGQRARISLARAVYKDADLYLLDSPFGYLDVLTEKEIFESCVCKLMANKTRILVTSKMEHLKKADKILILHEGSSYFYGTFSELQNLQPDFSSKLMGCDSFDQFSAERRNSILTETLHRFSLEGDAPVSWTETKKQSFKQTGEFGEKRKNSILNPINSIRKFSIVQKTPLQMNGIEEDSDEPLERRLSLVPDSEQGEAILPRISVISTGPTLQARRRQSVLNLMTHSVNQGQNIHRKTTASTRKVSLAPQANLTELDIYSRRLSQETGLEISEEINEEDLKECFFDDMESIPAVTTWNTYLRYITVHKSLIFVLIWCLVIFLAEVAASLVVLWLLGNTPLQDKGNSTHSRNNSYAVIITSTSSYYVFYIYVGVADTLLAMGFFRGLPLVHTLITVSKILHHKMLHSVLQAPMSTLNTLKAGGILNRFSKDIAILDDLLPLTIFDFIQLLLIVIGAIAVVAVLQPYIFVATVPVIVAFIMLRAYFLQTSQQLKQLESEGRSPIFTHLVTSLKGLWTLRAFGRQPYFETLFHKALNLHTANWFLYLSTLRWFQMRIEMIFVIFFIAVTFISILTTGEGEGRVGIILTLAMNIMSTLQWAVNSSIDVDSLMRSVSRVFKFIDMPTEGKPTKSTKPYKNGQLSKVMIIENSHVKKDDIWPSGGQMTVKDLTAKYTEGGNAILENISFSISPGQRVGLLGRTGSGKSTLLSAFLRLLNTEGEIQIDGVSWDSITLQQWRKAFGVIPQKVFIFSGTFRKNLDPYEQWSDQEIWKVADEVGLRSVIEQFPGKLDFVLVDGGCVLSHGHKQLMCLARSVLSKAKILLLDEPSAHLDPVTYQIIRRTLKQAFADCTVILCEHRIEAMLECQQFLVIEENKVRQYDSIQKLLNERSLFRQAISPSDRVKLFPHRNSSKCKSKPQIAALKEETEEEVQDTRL
Sequence of BCRP (Q9UNQ0 whole entry): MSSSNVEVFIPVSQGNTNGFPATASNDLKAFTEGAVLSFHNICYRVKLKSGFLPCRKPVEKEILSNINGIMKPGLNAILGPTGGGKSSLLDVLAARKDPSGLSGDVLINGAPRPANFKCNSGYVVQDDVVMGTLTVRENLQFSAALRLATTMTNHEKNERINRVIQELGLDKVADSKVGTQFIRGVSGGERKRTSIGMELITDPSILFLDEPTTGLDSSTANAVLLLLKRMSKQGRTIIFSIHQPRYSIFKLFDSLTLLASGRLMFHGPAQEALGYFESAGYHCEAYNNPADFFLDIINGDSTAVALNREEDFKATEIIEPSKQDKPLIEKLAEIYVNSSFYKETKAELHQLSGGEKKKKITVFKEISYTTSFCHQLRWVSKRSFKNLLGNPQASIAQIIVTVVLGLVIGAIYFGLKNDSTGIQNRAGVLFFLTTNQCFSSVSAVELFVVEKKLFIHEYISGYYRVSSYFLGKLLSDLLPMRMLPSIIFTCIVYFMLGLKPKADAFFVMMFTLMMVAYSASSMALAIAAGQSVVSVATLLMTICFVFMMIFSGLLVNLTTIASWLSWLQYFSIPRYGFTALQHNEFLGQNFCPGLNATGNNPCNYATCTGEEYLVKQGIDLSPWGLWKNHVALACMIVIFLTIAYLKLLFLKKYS
Sequence of OATP1B1 (Q9Y6L6 whole entry): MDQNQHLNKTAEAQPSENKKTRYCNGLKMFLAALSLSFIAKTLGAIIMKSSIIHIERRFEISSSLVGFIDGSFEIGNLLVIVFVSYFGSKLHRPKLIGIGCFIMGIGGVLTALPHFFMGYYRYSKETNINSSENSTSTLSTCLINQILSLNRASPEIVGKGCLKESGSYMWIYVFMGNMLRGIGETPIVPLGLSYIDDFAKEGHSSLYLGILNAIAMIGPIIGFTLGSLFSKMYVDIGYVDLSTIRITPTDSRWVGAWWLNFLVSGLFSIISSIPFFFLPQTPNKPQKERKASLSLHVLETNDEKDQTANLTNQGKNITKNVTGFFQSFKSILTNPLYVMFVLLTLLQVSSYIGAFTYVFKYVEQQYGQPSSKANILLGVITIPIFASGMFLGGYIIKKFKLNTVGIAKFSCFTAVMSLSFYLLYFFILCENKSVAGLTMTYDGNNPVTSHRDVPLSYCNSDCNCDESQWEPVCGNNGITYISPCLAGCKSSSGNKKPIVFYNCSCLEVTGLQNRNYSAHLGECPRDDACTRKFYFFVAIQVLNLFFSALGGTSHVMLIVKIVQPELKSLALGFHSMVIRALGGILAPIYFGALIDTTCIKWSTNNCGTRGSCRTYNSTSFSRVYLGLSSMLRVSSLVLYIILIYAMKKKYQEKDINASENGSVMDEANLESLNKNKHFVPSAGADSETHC
Sequence of OATP1B3 (Q9NPD5 whole entry): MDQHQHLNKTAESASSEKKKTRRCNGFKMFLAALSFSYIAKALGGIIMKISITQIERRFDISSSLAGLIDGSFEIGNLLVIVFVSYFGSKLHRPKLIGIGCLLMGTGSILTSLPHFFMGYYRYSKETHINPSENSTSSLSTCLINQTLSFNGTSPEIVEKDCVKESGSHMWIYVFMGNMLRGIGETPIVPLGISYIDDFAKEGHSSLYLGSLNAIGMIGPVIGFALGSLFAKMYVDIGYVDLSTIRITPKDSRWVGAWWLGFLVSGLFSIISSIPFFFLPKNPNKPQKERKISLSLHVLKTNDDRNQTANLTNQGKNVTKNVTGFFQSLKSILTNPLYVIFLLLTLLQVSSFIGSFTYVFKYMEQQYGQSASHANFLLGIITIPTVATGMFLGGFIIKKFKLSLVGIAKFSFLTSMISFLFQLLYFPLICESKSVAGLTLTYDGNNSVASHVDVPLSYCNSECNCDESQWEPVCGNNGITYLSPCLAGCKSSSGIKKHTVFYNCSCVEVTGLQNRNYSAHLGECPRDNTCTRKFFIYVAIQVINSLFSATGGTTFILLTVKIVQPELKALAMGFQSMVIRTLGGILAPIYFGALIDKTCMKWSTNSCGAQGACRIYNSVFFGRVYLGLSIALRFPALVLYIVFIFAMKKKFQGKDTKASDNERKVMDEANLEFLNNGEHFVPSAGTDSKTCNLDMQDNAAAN

## COc1nc(C(=O)NC[C@](C)(O)C(F)(F)F)c(N)cc1C(F)(F)F (single isomer, unassigned) [Example 5]
[1]
  EC50: 72 nM
[2]; Baseline
  patients colonized, n (%): 26 (57.8) n (%)
[2]; Baseline, sputum analysis set
  bacterial colonization, percent of patients: 58%
[2]; D14
  patients colonized, n (%): 23 (53.5) n (%)
  patients with a positive culture, n (%): 19 (76.0) n (%)
[2]; D29
  patients colonized, n (%): 23 (54.8) n (%)
  patients with a positive culture, n (%): 18 (75.0) n (%)
[2]; Day 29, placebo 15%
  percent of patients who cleared colonization: 25%
[2]; Day 29, sputum analysis set, placebo 70%
  percent of patients colonized: 55%
[2]; EOS
  patients colonized, n (%): 17 (40.5) n (%)
  patients with a positive culture, n (%): 14 (58.3) n (%)
[2]; EOS, placebo 23%
  percent of patients who cleared colonization: 42%
[2]; EOS, sputum analysis set, placebo 74%
  percent of patients colonized: 41%
[3]; Baseline
  patients colonized, n (%): 25 (55.6) n (%)
[3]; D14
  patients colonized, n (%): 20 (46.5) n (%)
[3]; D29
  patients colonized, n (%): 22 (52.4) n (%)
[3]; EOS
  patients colonized, n (%): 16 (38.1) n (%)
[4]
  patients colonized, n (%): 1 (2.2) n (%)
[5]; Day 14, COPD patients
  LCI, pre-bronchodilator FEV1 and post-bronchodilator FEV1, mean change from baseline: evidence of improvement
[5]; Day 29, 300 mg bid 28 days, COPD patients
  pre- and post-bronchodilator FVC, IC, % FEF25-75 compared to placebo: supportive evidence of improvement
[5]; Day 29, 300 mg bid 28 days, COPD, 90% CI −0.02, 0.14, p-value=0.100
  estimated difference (Compound A - placebo) in mean change from baseline post-bronchodilator FEV1: 0.06 L
[5]; Day 29, 300 mg bid 28 days, COPD, 90% CrI −0.03, 0.13, 84% probability better than placebo
  posterior difference (Compound A - placebo) in mean change from baseline pre-bronchodilator FEV1: 0.05 L
[5]; Day 29, 300 mg bid 28 days, COPD, 90% CrI −0.24, 0.79, 19% probability better than placebo
  posterior difference (Compound A - placebo) in mean change from baseline LCI: 0.28
[5]; EOS, 28 days after the last dose, COPD patients
  efficacy results for FEV1, sweat chloride, fibrinogen, spirometry and lung volume measurements: returned to baseline
[5]; patients with COPD, four weeks of treatment, listed as Compound A
  lung function (FEV1): significant improvement; also recorded: statistically important improvement
[6]
  estimated difference (Compound A - placebo) in mean change from baseline sweat chloride: -5.19 mmol/L
[7]
  lung function (FEV1): significant improvement; also recorded: statistically important improvement
[8]
  effect on co-medications mainly metabolized by CYP2B6: induce
[9]
  effect on CYP3A4/5: time dependent inhibitor and inducer
[10]
  inhibition of BCRP: Weak in vitro inhibition
[11]
  inhibition of OATP1B1: Weak in vitro inhibition
[12]
  inhibition of OATP1B3: Weak in vitro inhibition
[13]; NOAEL exposure, AUC0-24 h (exposure threshold), chronic monkey toxicology study
  AUC(0-t): 91.7 µg·h/mL
[13]; upper range of the individual animal (monkey) exposures, AUC0-24 h
  AUC(0-t): 159 µg·h/mL
